Reference: patent publication US8217055B2, “Pyrido-pyrazine derivatives useful as herbicidal compounds” (Syngenta Crop Protection LLC, priority 2006, dated 2012)

Columns and labels:
Format in all cases: in vivo
Chenopodium album = assay: Example B3 herbicidal action, post-emergence, small pots in glasshouse (score 10=total damage to plant, 0=no damage to plant); details: Application post-emergence, 1000 g/ha, evaluated after 13 days
Protocol: (§1) Seeds of a variety of test species were sown in sterilised compost in small pots. After cultivation for seven days (post-emergence) in controlled conditions in the glasshouse (at 24/16° C., day/night; 14 hours light; 65% humidity) the plants were sprayed with 1 mg of the active ingredient, formulated in 2.5 ml acetone/water (50:50) solution, which is equivalent to 1000 g/ha. Once the foliage was dry, the pots were kept in the glasshouse (at 24/16° C., day/night; 14 hours light; 65% humidity), and were watered twice daily. After 13 days the test was evaluated (10=total damage to plant, 0=no damage to plant).

Digitaria sanguinalis = assay: as above; details: Application post-emergence, 1000 g/ha, evaluated after 13 days
Protocol: as §1

Amaranthus retroflexus [1] = assay: as above; details: Application post-emergence, 1000 g/ha, evaluated after 13 days
Protocol: as §1

Alopecurus myosuroides = assay: as above; details: Application post-emergence, 1000 g/ha, evaluated after 13 days
Protocol: as §1

Nasturtium officinale = assay: Example B1 herbicidal action, post-emergence, seed trays in climatic chamber (score 10=total damage to plant, 0=no damage to plant); details: Application post-emergence, 1000 g/ha, evaluated after 9 days
Protocol: (§2) Seeds of a variety of test species were sown in sterilised standard soil in seed trays each having 96 cells. After cultivation for 8 to 9 days cultivation (post-emergence) under controlled conditions in a climatic chamber (cultivation at 23/17° C., day/night; 13 hours light; 50-60% humidity), the plants were treated with an aqueous spray solution of 1000 mg/l of the active ingredient dissolved in 10% DMSO (dimethyl sulfoxide, CAS RN 67-68-5) as a solvent, equivalent to 1000 g/ha. The plants were grown in the climatic chamber after application at (24/19° C., day/night; 13 hours light; 50-60% humidity) and watered twice daily. After 9 days until the test was evaluated (10=total damage to plant, 0=no damage to plant)

Stellaria media = assay: as above; details: Application post-emergence, 1000 g/ha, evaluated after 9 days
Protocol: as §2

Amaranthus retroflexus [2] = assay: as above; details: Application post-emergence, 1000 g/ha, evaluated after 9 days
Protocol: as §2

Solanum nigrum = assay: as above; details: Application post-emergence, 1000 g/ha, evaluated after 9 days
Protocol: as §2

[3] = system: test plants (a variety of test species); assay: Example B2 herbicidal action, post-emergence, pots in glasshouse, evaluated after 13 days (score 10=total damage to plant; 0=no damage to plant); details: same protocol as Example B2 (post-emergence, evaluated after 13 days)
Protocol: Seeds of a variety of test species were sown in standard soil in pots. After 8 days cultivation (post-emergence) under controlled conditions in a glasshouse (at 24/16° C., day/night; 14 hours light; 65% humidity), the plants were sprayed with an aqueous spray solution derived from the formulation of the technical active ingredient in acetone/water (50:50) solution containing 0.5% Tween 20 (polyoxyethelyene sorbitan monolaurate, CAS RN 9005-64-5). The test plants were then grown in a glasshouse under controlled conditions in a glasshouse (at 24/16° C., day/night; 14 hours light; 65% humidity) and watered twice daily. After 13 days, the test was evaluated (10=total damage to plant; 0=no damage to plant).

test plants = assay: Example B1 herbicidal action, post-emergence, all test plants together; details: same protocol as Example B1 (post-emergence, 1000 g/ha, 9 days)
Protocol: as §2

SMILES | NAAOF (damage to plant) (Nasturtium officinale) | STEME (damage to plant) (Stellaria media) | AMARE (damage to plant) (Amaranthus retroflexus [2]) | SOLNI (damage to plant) (Solanum nigrum) | other results
CC(C)C(=O)Oc1c(-c2cccc(C(F)(F)F)c2Cl)c(=O)n(CC(F)F)c2nccnc12 [A4] |  |  |  |  | CHEAL (damage to plant) (Chenopodium album): 10; DIGSA (damage to plant) (Digitaria sanguinalis): 7; AMARE (damage to plant) (Amaranthus retroflexus [1]): 10; ALOMY (damage to plant) (Alopecurus myosuroides): 0
Cc1ccc(Cl)c(-c2c(OC(=O)C(C)(C)C)c3nccnc3n(CC(F)F)c2=O)c1F [A5] | 5 | 7 | 4 | 2 | 
Cc1ccc(Cl)c(-c2c(OC(=O)C(C)C)c3nccnc3n(CC(F)F)c2=O)c1F [A6] | 7 | 7 | 5 | 0 | 
CC(C)C(=O)Oc1c(-c2cc(C(F)(F)F)ccc2Cl)c(=O)n(CC(F)F)c2nccnc12 [A7] | 7 | 8 | 4 | 5 | 
CC(C)(C)C(=O)Oc1c(-c2cc(C(F)(F)F)ccc2Cl)c(=O)n(CC(F)F)c2nccnc12 [A8] | 7 | 7 | 6 | 6 | 
Cc1cnc2c(n1)c(OC(=O)C(C)(C)C)c(-c1c(F)ccc(F)c1Cl)c(=O)n2CC(F)F [A29] |  |  |  |  | damage to the test plants [3]: no damage or very little damage
Cc1cnc2c(OC(=O)C(C)(C)C)c(-c3c(F)ccc(F)c3Cl)c(=O)n(CC(F)F)c2n1 [A30] |  |  |  |  | damage to the test plants [3]: no damage or very little damage
CC(C)(C)C(=O)Oc1c(-c2c(F)ccc(F)c2Cl)c(=O)n(CC(F)F)c2ncc(-c3ccccc3)nc12 [A31] |  |  |  |  | damage to the test plants [3]: no damage or very little damage
CC(C)(C)C(=O)Oc1c(-c2ccccc2I)c(=O)n(CC(F)F)c2nccnc12 [A36] |  |  |  |  | CHEAL (damage to plant) (Chenopodium album): 10; DIGSA (damage to plant) (Digitaria sanguinalis): 5; AMARE (damage to plant) (Amaranthus retroflexus [1]): 10; ALOMY (damage to plant) (Alopecurus myosuroides): 8
O=c1c(-c2cccc(C(F)(F)F)c2Cl)c(O)c2nccnc2n1CC(F)F [B1] | 6 | 5 | 0 | 6 | 
O=c1c(-c2c(F)ccc(F)c2Cl)c(O)c2nccnc2n1CC(F)F [B2, 7-(2-chloro-3,6-difluoro-phenyl)-5-(2,2-difluoro-ethyl)-8-hydroxy-5H-pyrido[2,3-b]pyrazin-6-one] | 8 | 8 | 6 | 5 | 
CC(C)(C)C(=O)Oc1c(-c2ccccc2OC(F)(F)F)c(=O)n(CCCCCl)c2nccnc12 [C1] |  |  |  |  | damage to the test plants (test plants): no damage or very little damage
CC(C)(C)C(=O)Oc1c(-c2ccccc2OC(F)(F)F)c(=O)n(CCC(F)(F)F)c2nccnc12 [C2] | 0 | 0 | 0 | 4 | 
CC(C)(C)C(=O)Oc1c(-c2ccccc2OC(F)(F)F)c(=O)n(CCC(F)(F)C(F)(F)F)c2nccnc12 [C3] |  |  |  |  | damage to the test plants (test plants): no damage or very little damage
CC(C)(C)C(=O)Oc1c(-c2c(F)ccc(F)c2Cl)c(=O)n(CCCCCl)c2nccnc12 [C4] | 0 | 1 | 0 | 4 | 
CC(C)(C)C(=O)Oc1c(-c2c(F)ccc(F)c2Cl)c(=O)n(CCCCl)c2nccnc12 [C5] |  |  |  |  | damage to the test plants (test plants): no damage or very little damage
CC(C)(C)C(=O)Oc1c(-c2c(F)ccc(F)c2Cl)c(=O)n(CCC(F)(F)F)c2nccnc12 [C6] | 0 | 3 | 0 | 1 | 
CC(C)(C)C(=O)Oc1c(-c2c(F)ccc(F)c2Cl)c(=O)n(CCC(F)(F)C(F)(F)F)c2nccnc12 [C7] | 0 | 0 | 0 | 3 | 
